Results reported in publication PMC6327951 (The Journal of organic chemistry, 2018).
“Also recorded” adds a separate entry of the source. Read-outs that look alike come from different tables or passages of the source.

Key:
SpNanB [1] = molecular target: T1, SpNanB (Streptococcus pneumoniae serotype 4, UniProt Q54727); details: cited from earlier work
SpNanC [2] = molecular target: T2, SpNanC (Streptococcus pneumoniae, UniProt A0A0H2UQE4); details: cited from earlier work
IT-sialidase RgNanH = details: cited from earlier work
SpNanB [3] = molecular target: T1, SpNanB; assay: SpNanB-catalyzed hydrolysis assay; format: biochemical; details: 10 mM compound, SpNanB 1 mg/mL, NaOAc pH 6.0 or Tris-HCl pH 7.0, 24 h
[4] = test system: SpNanA, SpNanB, SpNanC, PmST1, BiNanH2, AuSialidase, CpNanI, VcSialidase, hNEU2; assay: Sialidase inhibition assay at 1 mM, whole panel of sialidases tested; format: biochemical; details: inhibitor 1 mM
SpNanA [5] = molecular target: T3, SpNanA (Streptococcus pneumoniae, UniProt P62575); assay: Sialidase inhibition assay, 384-well colorimetric, Neu5Acα2–3GalβpNP substrate; format: biochemical; details: inhibitor 1 mM
T3 sequence (P62575 54-1035): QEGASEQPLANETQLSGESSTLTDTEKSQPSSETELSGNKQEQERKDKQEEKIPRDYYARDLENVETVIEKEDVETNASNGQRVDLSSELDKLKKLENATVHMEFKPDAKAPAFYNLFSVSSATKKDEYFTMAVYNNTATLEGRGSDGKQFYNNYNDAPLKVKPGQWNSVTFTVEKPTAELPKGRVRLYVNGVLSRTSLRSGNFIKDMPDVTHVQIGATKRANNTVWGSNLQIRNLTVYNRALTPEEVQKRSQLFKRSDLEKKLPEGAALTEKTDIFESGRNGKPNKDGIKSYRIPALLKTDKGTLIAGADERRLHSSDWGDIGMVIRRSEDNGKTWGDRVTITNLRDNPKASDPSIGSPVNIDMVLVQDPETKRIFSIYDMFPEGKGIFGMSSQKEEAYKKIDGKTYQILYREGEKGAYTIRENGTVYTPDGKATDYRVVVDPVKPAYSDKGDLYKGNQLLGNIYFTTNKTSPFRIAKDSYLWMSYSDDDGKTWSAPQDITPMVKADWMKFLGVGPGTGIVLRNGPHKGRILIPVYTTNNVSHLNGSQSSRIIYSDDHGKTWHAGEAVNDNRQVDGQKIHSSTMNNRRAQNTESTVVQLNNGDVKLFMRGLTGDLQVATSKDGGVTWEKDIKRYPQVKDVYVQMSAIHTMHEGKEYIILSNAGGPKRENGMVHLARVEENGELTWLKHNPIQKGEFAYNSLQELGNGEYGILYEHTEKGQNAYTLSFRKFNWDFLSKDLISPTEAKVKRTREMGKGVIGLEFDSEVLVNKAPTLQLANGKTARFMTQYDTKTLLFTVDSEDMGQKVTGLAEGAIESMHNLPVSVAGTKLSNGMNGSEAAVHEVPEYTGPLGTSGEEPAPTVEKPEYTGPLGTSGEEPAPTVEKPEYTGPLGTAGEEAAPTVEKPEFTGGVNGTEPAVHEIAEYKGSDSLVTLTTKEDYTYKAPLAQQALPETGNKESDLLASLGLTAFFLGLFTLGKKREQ

SpNanB [6] = molecular target: T1, SpNanB; assay: as above; format: biochemical; details: for Inhibitory activity against SpNanB: inhibitor 1 mM
AuSialidase = AuSialidase (Paenarthrobacter ureafaciens, UniProt Q5W7Q2); assay: as above; format: biochemical, Arthrobacter ureafaciens; details: inhibitor 1 mM
SpNanC [7] = molecular target: T2, SpNanC; assay: as above; format: biochemical
VcSialidase = VcSialidase (Vibrio cholerae serotype O1, UniProt P0C6E9); assay: as above; format: biochemical
VcSialidase, sequence (P0C6E9 25-781): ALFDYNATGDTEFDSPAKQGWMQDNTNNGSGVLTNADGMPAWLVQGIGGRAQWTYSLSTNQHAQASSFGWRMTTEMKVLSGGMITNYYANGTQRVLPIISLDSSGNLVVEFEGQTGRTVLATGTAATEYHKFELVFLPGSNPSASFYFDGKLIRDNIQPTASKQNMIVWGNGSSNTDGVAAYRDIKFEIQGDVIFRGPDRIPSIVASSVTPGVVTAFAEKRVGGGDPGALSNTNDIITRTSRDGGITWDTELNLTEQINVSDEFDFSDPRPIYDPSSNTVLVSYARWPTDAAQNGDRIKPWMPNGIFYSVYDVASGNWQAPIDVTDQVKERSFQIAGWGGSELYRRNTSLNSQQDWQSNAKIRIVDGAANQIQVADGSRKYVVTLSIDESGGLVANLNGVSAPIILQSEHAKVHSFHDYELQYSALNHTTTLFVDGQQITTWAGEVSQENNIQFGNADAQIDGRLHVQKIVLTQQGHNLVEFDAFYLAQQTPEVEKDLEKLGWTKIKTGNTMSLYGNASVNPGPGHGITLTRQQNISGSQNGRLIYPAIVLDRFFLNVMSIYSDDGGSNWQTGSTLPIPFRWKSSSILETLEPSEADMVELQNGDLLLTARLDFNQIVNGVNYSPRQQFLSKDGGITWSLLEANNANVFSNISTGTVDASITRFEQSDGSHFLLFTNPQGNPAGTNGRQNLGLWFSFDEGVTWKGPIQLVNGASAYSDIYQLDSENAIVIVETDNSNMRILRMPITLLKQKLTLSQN

SpNanA [8] = molecular target: T3, SpNanA; details: cited from earlier work

T1 sequence (Q54727 30-697): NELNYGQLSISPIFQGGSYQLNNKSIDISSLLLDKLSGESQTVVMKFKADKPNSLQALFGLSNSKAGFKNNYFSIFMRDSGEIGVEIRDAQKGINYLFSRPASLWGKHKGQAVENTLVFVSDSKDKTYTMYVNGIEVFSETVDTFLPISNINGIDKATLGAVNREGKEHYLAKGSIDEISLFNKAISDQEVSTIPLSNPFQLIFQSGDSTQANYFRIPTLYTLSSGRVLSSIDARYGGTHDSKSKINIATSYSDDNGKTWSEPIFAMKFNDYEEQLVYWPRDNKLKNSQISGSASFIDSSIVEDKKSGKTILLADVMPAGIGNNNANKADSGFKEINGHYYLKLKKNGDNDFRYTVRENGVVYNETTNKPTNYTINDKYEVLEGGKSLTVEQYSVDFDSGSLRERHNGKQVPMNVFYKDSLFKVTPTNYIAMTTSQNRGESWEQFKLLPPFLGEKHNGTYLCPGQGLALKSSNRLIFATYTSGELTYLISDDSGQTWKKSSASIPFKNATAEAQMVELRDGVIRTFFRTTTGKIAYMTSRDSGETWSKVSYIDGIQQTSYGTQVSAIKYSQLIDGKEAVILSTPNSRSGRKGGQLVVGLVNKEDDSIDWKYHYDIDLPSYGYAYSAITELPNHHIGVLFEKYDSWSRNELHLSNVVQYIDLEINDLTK

In the case of O=S(=O)(O)CCNC1CCCCC1 [CHES, 2-N-Cyclohexylaminoethanesulfonic acid], the “Inhibition against SpNanB” value (SpNanB [1]) is given as “weak inhibition”.

In the case of CC(=O)N[C@H]1[C@H]([C@H](O)[C@H](O)CO)OC(C(=O)O)=C[C@@H]1O [Neu5Ac2en, 2,3-dehydro-2-deoxy-N-acetylneuraminic acid], the “IC50 against SpNanC” value (SpNanC [2]) is listed as “submillimolar range” and the “Inhibition against SpNanB” value (SpNanB [1]; other reports) is listed as “millimolar inhibitor”.

In the case of CCOC(=O)C1=C[C@@H](OC(CC)CC)[C@H](NC(C)=O)[C@@H](N)C1 [Oseltamivir], the “Inhibition of RgNanH” value (IT-sialidase RgNanH) is given as “inhibited”, the “Inhibitory activity against SpNanC” value (SpNanC [2]; concentration up to 7.5 mM) is given as “did not show inhibitory activity” and the “Inhibitory activity against SpNanB” value (SpNanB [1]; concentration up to 7.5 mM) is given as “did not show inhibitory activity”.

In the case of COc1cc2oc(-c3ccc(O)cc3O)c(CC=C(C)C)c(=O)c2c(O)c1/C=C/C(C)C [artocarpin], the “Inhibition against SpNanB” value (SpNanB [1]) is given as “reported to be inhibitors”.

In the case of CC(=O)N[C@H]1[C@H]2O[C@@](C(=O)O)(C[C@@H]1O)O[C@@H]2[C@H](O)CO [compound 1, 5-Acetamido-2,7-anhydro-3,5-dideoxy-α-D-glycero-D-galacto-non-2-ulopyranosonic acid], the “Hydrolysis by SpNanB” value (SpNanB [3]) is reported as “can be hydrolyzed by SpNanB; also recorded: most 2,7-anhydro-Neu5Ac (1) was converted to Neu5Ac” and the “Inhibition against any sialidases tested” value [4] is reported as “no significant inhibition”.

With O=C(N[C@H]1[C@H]2O[C@@](C(=O)O)(C[C@@H]1O)O[C@@H]2[C@H](O)CO)C(F)(F)F [compound 2, 2,7-Anhydro-3,5-dideoxy-5-trifluoroacetamido-α-D-glycero-D-galacto-non-2-ulopyranosonic acid] the “Inhibitory activity against SpNanA” value (SpNanA [5]) was “some inhibitory activity”, the IC50 (SpNanB [6]) was 250 to 500 µM and the “Inhibitory activity against SpNanB” value (SpNanB [6]) was “some inhibitory activity”. The “Inhibitory activity against AuSialidase” value (AuSialidase) was “some inhibitory activity”, the IC50 (SpNanC [7]) was greater than 1000 µM and the IC50 (VcSialidase) was 500 to 1000 µM. For the same compound, the “Inhibitory activity against VcSialidase” value (VcSialidase; inhibitor 1 mM) was “some inhibitory activity”.

With N[C@H]1[C@H]2O[C@@](C(=O)O)(C[C@@H]1O)O[C@@H]2[C@H](O)CO [compound 3, 5-Amino-2,7-anhydro-3,5-dideoxy-α-D-glycero-D-galacto-non-2-ulopyranosonic acid] the “Inhibition against any sialidases tested” value [4] was “no significant inhibition”.

In the case of O=C(N[C@H]1[C@H]2O[C@@](C(=O)O)(C[C@@H]1O)O[C@@H]2[C@H](O)CO)C1CCCCC1 [compound 4, 2,7-Anhydro-5-cyclohexylamido-3,5-dideoxy-α-D-glycero-D-galacto-non-2-ulopyranosonic acid], the “Inhibitory activity against SpNanA” value (SpNanA [5]) is reported as “noticeable inhibitory activity”, the “Hydrolysis by SpNanB” value (SpNanB [3]) is reported as “resistant to SpNanB hydrolysis; also recorded: remained intact” and the “Inhibitory activity against SpNanB” value (SpNanB [6]) is reported as “noticeable inhibitory activity”. For the same compound, the “Inhibitory activity against SpNanC” value (SpNanC [7]; inhibitor 1 mM) was “noticeable inhibitory activity”.

For O=C(CCc1ccccc1)C[C@@H]1C[C@@H](c2ccccc2)c2c(cc(/C=C/c3ccccc3)oc2=O)O1 [katsumadain A], the “Inhibition against SpNanB” value (SpNanB [1]) is given as “reported to be inhibitors”.

In the case of O=C(CCCCCCCCc1ccc(O)c(O)c1)c1c(O)cccc1O [malabaricone C], the “IC50 against SpNanC” value (SpNanC [2]) is listed as “submicromolar range”, the “IC50 against SpNanA” value (SpNanA [8]) is listed as “submicromolar range” and the “IC50 against SpNanB” value (SpNanB [1]) is listed as “submicromolar range”.
